Experimental data published in ChEMBL document CHEMBL4414592, “Aryl-fluorosulfate-based Lysine Covalent Pan-Inhibitors of Apoptosis Protein (IAP) Antagonists with Cellular Efficacy” (J Med Chem, 2019).
Calls of active or inactive are those of the source. The rule behind the calls is not given here.

Tests used:
[1] = Stability in aqueous buffer at 100 uM to 2 mM by 1H 1D NMR spectroscopy; type: physicochemical
[2] = Solubility in pH 7.5 aqueous buffer at 25 degC by 1H 1D NMR spectroscopy; type: physicochemical
SK-MEL-28 [3] = assay: Induction of apoptosis in human SK-MEL-28 cells assessed as increase in caspase-3/7 activity at […] incubated for 36 hrs by IncuCyteS3 caspase-3/7 fluorescence-based apoptosis assay; type: functional, cell-based
A549 [4] = assay: Induction of apoptosis in human A549 cells assessed as increase in caspase-3/7 activity at […] incubated for 36 hrs by IncuCyteS3 caspase-3/7 fluorescence-based apoptosis assay; type: functional, cell-based
SK-MEL-28 [5] = assay: Induction of apoptosis in human SK-MEL-28 cells assessed as increase in caspase-3/7 activity at […] incubated for 36 hrs in presence of 1 ng/mL TNFlpha by IncuCyteS3 caspase-3/7 fluorescence-based apoptosis assay; type: functional, cell-based
A549 [6] = assay: Induction of apoptosis in human A549 cells assessed as increase in caspase-3/7 activity at […] incubated for 36 hrs in presence of 1 ng/mL TNFlpha by IncuCyteS3 caspase-3/7 fluorescence-based apoptosis assay; type: functional, cell-based
SK-MEL-28 [7] = assay: Cytotoxicity in human SK-MEL-28 cells assessed as reduction in cell viability in presence of 1 ng/mL TNFlpha measured every 3 hrs for 4 days by IncuCyteS3 live-cell analysis system based assay; type: functional
A549 [8] = assay: Cytotoxicity in human A549 cells assessed as reduction in cell viability in presence of 1 ng/mL TNFlpha measured every 3 hrs for 4 days by IncuCyteS3 live-cell analysis system based assay; type: functional
[9] = target: Baculoviral IAP repeat-containing protein 2 (Homo sapiens) (UniProt Q13490); assay: Binding affinity to N-terminal 6x-His-tagged recombinant human cIAP1-BIR3 (258 to 363 residues) expressed in Escherichia coli assessed as increase in […] domain mass at protein-compound ratio of 1:10 incubated for 6 hrs at 25 degC by LC-MS analysis relative to control
[10] = Stability in mouse plasma assessed as half life at 200 uM at 37 degC incubated up to 120 mins by mass spectrometry; type: ADME, cell-free; conditions: 2 h
[11] = target: T1, Baculoviral IAP repeat-containing protein 3 (Homo sapiens, UniProt Q13489); assay: Inhibition of N-terminal 6x-His-tagged recombinant human cIAP2-BIR3 (244 to 349 residues) expressed in Escherichia coli incubated for 2 hrs without 6 hrs pre-incubation with enzyme by biotinylated AVPI peptide based DELFIA
[12] = target: T1, Baculoviral IAP repeat-containing protein 3; assay: Inhibition of N-terminal 6x-His-tagged recombinant human cIAP2-BIR3 (244 to 349 residues) expressed in Escherichia coli incubated for 2 hrs after 6 hrs pre-incubation with enzyme by biotinylated AVPI peptide based DELFIA
[13] = target: T2, E3 ubiquitin-protein ligase XIAP (Homo sapiens, UniProt P98170)
[14] = target: T2, E3 ubiquitin-protein ligase XIAP; remark: listed apart in the source
[15] = target: T2, E3 ubiquitin-protein ligase XIAP; remark: listed apart in the source
[16] = target: T2, E3 ubiquitin-protein ligase XIAP; remark: listed apart in the source

T2 sequence (P98170 whole entry): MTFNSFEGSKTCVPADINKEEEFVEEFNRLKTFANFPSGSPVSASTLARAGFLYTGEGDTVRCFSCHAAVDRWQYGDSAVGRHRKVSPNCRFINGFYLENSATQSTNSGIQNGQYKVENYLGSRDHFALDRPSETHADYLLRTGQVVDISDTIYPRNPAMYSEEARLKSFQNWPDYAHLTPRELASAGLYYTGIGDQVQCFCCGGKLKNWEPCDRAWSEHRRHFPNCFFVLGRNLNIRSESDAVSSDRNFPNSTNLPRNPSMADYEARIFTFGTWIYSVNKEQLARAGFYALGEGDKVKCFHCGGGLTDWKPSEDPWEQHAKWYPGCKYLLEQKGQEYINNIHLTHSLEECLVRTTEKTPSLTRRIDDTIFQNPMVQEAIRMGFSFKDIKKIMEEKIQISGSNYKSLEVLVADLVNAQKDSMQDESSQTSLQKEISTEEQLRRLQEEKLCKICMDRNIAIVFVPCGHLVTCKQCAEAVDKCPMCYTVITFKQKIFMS
T1 sequence (Q13489 whole entry, the tested form may be a part): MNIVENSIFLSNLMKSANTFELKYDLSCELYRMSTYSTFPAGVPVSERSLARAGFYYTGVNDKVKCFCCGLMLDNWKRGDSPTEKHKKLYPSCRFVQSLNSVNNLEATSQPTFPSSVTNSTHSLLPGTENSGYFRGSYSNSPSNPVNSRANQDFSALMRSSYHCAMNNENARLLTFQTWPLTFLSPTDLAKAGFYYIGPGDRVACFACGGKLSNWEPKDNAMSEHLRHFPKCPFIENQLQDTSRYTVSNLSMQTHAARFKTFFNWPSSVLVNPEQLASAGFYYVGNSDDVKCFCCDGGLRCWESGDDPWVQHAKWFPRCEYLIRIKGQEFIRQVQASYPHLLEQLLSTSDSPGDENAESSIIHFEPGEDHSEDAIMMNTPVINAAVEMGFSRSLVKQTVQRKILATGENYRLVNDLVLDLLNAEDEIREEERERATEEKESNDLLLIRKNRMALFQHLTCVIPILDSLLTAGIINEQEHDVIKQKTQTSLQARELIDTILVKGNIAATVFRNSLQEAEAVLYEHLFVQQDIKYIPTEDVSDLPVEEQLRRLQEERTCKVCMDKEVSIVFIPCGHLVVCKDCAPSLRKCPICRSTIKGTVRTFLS
Chain of Baculoviral IAP repeat-containing protein 2 (Homo sapiens) (Q13490 whole entry, the tested form may be a part): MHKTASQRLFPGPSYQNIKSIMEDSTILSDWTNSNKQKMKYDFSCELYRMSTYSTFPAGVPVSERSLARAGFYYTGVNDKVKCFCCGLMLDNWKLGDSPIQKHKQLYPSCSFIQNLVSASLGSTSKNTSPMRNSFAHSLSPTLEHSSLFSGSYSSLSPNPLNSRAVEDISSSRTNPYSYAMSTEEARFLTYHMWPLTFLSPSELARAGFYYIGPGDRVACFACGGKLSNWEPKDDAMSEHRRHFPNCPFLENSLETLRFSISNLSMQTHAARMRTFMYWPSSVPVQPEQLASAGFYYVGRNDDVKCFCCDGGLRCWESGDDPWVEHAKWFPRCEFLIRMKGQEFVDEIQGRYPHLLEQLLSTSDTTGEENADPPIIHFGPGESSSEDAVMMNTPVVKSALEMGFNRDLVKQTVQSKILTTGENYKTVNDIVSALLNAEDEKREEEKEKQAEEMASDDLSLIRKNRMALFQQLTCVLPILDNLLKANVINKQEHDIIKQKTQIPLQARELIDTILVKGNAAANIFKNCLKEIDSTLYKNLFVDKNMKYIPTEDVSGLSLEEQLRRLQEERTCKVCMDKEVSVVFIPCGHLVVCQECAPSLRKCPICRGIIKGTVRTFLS

Row | Stability [10] | IC50 [11] [nM] | IC50 [12] [nM] | IC50 [13] [nM] | IC50 [14] [nM] | ΔTm [15] [°C] | ΔTm [16] [°C] | Compound | Stability [1] | solubility [2] | Activity (SK-MEL-28 [3]) | Activity (A549 [4]) | Activity (SK-MEL-28 [5]) | Activity (A549 [6]) | Activity (SK-MEL-28 [7]) | Activity (A549 [8]) | Activity [9]
1 | – | – | – | – | – | – | – | CN[C@@H](C)C(=O)N[C@H](C(=O)N1CCC[C@H]1C(=O)N[C@@H]1CCc2c(OS(=O)(=O)F)cccc21)C1CCCCC1 | Stable | <= 2 mM | inactive | inactive | Dose-dependent effect | Dose-dependent effect | Dose-dependent effect | Dose-dependent effect | –
2 | – | – | – | – | – | – | – | CN[C@@H](C)C(=O)N[C@@H](Cc1ccc(OS(=O)(=O)F)cc1)C(=O)N1CCC[C@H]1C(=O)N[C@@H]1CCc2c(F)cccc21 | – | – | inactive | inactive | Dose-dependent effect | Dose-dependent effect | Dose-dependent effect | Dose-dependent effect | inactive
3 | Stable | – | – | – | – | – | – | CN[C@@H](C)C(=O)N[C@H](C(=O)N1CCC[C@H]1c1nc(C(=O)c2ccc(F)cc2)cs1)C1CCCCC1 [LCL-161] | – | – | inactive | inactive | Dose-dependent effect | Dose-dependent effect | Dose-dependent effect | Dose-dependent effect | –
4 | Stable | 44 | 133 | 42 | 47.8 | 17 | 19 | CN[C@@H](C)C(=O)N[C@H]1CN(C(=O)CC(C)C)CC[C@H]2CC[C@@H](C(=O)NC(c3ccccc3)c3ccccc3)N2C1=O [XEVINAPANT] | – | – | inactive | inactive | Dose-dependent effect | Dose-dependent effect | Dose-dependent effect | Dose-dependent effect | –

Row | Compound | Stability [10] | IC50 [11] [nM] | IC50 [12] [nM] | IC50 [13] [nM] | IC50 [14] [nM] | ΔTm [15] [°C] | ΔTm [16] [°C] | Stability [1] | solubility [2] | Activity (SK-MEL-28 [3]) | Activity (A549 [4]) | Activity (SK-MEL-28 [5]) | Activity (A549 [6]) | Activity (SK-MEL-28 [7]) | Activity (A549 [8]) | Activity [9]
5 | CN[C@@H](C)C(=O)NC(Cc1cc(C)c(C(F)(F)F)cc1F)C(=O)N1CCC[C@H]1C(=O)N[C@@H]1CCc2c(OS(=O)(=O)F)cccc21 (mixture of isomers) | Stable | – | – | – | – | – | – | – | <= 1 mM | inactive | inactive | Dose-dependent effect | Dose-dependent effect | Dose-dependent effect | Dose-dependent effect | –
